This is an account of results in ChEMBL document CHEMBL1151847, “In vitro skin diffusion study of pure forskolin versus a forskolin-containing Plectranthus barbatus root extract” (J Nat Prod, 2009).

The subject of data set [1] is Zone of skin. In words: Permeability across guinea pig skin assessed as permeation lag time applied topically after 24 hrs by LC-MS analysis. In kind it is ADME, tissue-based, Cavia porcellus. The conditions noted are these: topical_or_ocular.
In data set [2] the test system is Zone of skin. In words: Permeability across human skin assessed as drug content per gram of wet tissue applied topically after 24 hrs by LC-MS analysis. The data set is classed as ADME, tissue-based.
Data set [3] has as its system Zone of skin. In words: Permeability across guinea pig skin assessed as drug content per gram of wet tissue applied topically after 24 hrs by LC-MS analysis. The data set is classed as ADME, tissue-based, Cavia porcellus. The following applies: topical_or_ocular.
Data set [4] is described as follows: Ratio of permeability flux across guinea pig skin to permeability flux across human skin. In kind it is ADME, tissue-based, Zone of skin.
Data set [5] relates to Zone of skin. The data set can be described thus: Permeability across human skin assessed as permeation lag time applied topically after 24 hrs by LC-MS analysis. In kind it is ADME, tissue-based.
The test system of data set [6] is Zone of skin. In words: Permeability across guinea pig skin assessed as cumulative drug content applied topically after 24 hrs by LC-MS analysis. The data set is classed as ADME, tissue-based, Cavia porcellus. The following applies: topical_or_ocular.
Data set [7] has as its system Zone of skin. In words: Permeability across human skin assessed as cumulative drug content applied topically after 24 hrs by LC-MS analysis. The data set is classed as ADME, tissue-based.

On to `C=C[C@@]1(C)CC(=O)[C@]2(O)[C@@]3(C)[C@@H](O)CCC(C)(C)[C@@H]3[C@H](O)[C@H](OC(C)=O)[C@@]2(C)O1` [COLFORSIN], for which the Activity in the data set on Zone of skin [1] was determined as 2.8 h; in the data set with Zone of skin [5], 1.5 h. Also, the Drug uptake was determined as 20 µmol with Zone of skin [2], 5.8 µmol in the data set with Zone of skin [3], 75.6 nmol in the data set with Zone of skin [6] and 3.8 nmol with Zone of skin [7]. For the same compound, the Ratio in data set [4] turned out to be 19.
